{
  "source": "patent US8946231B2",
  "about": "“P2X3, receptor antagonists for treatment of pain” (Merck Sharp & Dohme Corp., priority 2009, dated 2015)",
  "target": "T1, human P2X3 (Homo sapiens, UniProt P56373)",
  "T1 construct": "expressed in transfected cells",
  "T1 sequence (P56373 1-397)": "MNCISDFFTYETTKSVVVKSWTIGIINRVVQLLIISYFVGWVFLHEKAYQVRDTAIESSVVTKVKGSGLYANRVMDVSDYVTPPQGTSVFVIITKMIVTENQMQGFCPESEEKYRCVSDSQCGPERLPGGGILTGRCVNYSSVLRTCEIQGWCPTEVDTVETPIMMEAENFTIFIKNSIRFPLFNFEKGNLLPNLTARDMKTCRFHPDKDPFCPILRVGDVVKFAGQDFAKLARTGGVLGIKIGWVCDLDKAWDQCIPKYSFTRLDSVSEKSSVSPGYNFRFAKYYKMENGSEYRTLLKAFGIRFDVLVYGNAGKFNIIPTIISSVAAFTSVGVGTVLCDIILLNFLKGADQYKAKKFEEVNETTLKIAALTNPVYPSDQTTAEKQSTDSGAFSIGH",
  "test": "Intracellular Calcium Measurement to Assess Antagonist Affinity (FLIPR, Fluo-4)",
  "format": "cell-based",
  "details": "cells expressing human P2X3; agonist α,β-meATP at EC50; antagonist added 10 min before agonist",
  "source_text": "Generation of a Human P2X3 and P2X2/3 Stable Cell Line—Human P2X3 receptor cDNA (Accession number NM_002559) was subcloned as a 5′XhoI and 3′HindIII fragment into the expression vector pcDNA5/FRT (Invitrogen). Human P2X2 receptor cDNA (Accession number NM_174873) was subcloned as a 5′EcoRI and 3′NotI fragment into the expression vector pIRESneo2 (BD Biosciences Clontech). The human P2X3 expression construct was transfected using Lipofectamine 2000 (Invitrogen) into Ftp-in—293 cells (Invitrogen) according to the manufacturer's directions. Cells positive for flp-mediated recombination of […] P2X3 were selected using 150 μg/ml hygromycin. The stable human P2X3 cell line was co-transfected with the human P2X2 expression construct using Lipofectamine 2000 as above and co-transfected cells selected using […] hygromycin and 1 mg/ml G418. The stable P2X3 cell line was propagated in DMEM, 10% FBS, 100 μg/ml hygromycin, and 100 units/ml penicillin and 100 μg/ml streptomycin, and maintained at 37° and 95% humidity. The stable P2X213 cell line was propagated as above with the addition of 500 μg/ml G418.\nIntracellular Calcium Measurement to Assess Antagonist Affinity—A fluorescent imaging plate reader (FLIPR; Molecular Devices) was used to monitor intracellular calcium levels using the calcium-chelating dye Fluo-4 (Molecular Probes). The excitation and emission wavelengths used to monitor fluorescence were 488 nm and 530 nm, respectively. Cells expressing either human P2X3 or human P2X2/3 were plated at a density of 20,000 cells/well (20 μl/well) in 384-well black-walled plates approximately 20 hours before beginning the assay. […] During this period fluorescence data is collected at 3 sec intervals followed by 10 sec intervals. […] Following agonist addition fluorescence was measured at 5 sec intervals and analyzed based on the increase in peak relative fluorescence units (RFU) compared to the basal fluorescence. Peak fluorescence was used to determine the inhibitory effect at each concentration of antagonist by the following equation: % Inhibition=100*(1−((RFU(drug)−RFU(control)/(RFU(DMSO only)−RFU(control)))) In vitro Electrophysiological Assay—Cells expressing human P2X3 receptors were grown to a confluence of 65-85% 20 to 32 hours prior to assay. The cells were dissociated with trypsin, centrifuged, and resuspended in bath solution at a cell density of 1×10^6 cells/ml and loaded onto PatchXpress. The bath solution contained 150 mM NaCl, 4 mM KCl, 2 mM CaCl2, 1.2 mM MgCl2, 10 mM HEPES, and 11.1 mM glucose, at pH 7.2. […]",
  "data": [
    {"smiles": "C[C@@H](NC(=O)c1cn(-c2ccc(F)cn2)nc1-c1ccccc1)c1ccc(C(F)(F)F)[n+]([O-])c1", "note": "[Example 1.74, 1-(5-Fluoropyridin-2-yl)-N-{(1R)-1-[1-oxido-6-(trifluoromethyl)pyridin-3-yl]ethyl}-3-phenyl-1H-pyrazole-4-carboxamide]", "values": [
      {"measurement": "IC50", "value": 53, "unit": "nM"}
    ]},
    {"smiles": "C[C@@H](NC(=O)c1cn(-c2ccc(F)cn2)nc1-c1cnoc1)c1ccc(C(F)(F)F)[n+]([O-])c1", "note": "[Example 1.103]", "values": [
      {"measurement": "IC50", "value": 125, "unit": "nM"}
    ]},
    {"smiles": "CC(C)Cc1nn(-c2ccc(F)cn2)cc1C(=O)N[C@H](C)c1ccc(C(F)(F)F)[n+]([O-])c1", "note": "[Example 1.109]", "values": [
      {"measurement": "IC50", "value": 34, "unit": "nM"}
    ]},
    {"smiles": "Cc1ccc(-c2nc(-c3ccccc3)c(C(=O)N[C@H](C)c3ccc(C(F)(F)F)[n+]([O-])c3)o2)nc1", "note": "[Example 2.5]", "values": [
      {"measurement": "IC50", "value": 84, "unit": "nM"}
    ]}
  ]
}
